# Values quoted from earlier work, collected in patent publication US20130130972A1, “ARTIFICIAL SWEETNERS AND PERFORMANCE” (priority 2010, published 2013).
# Where a SMILES comes first, the peptide text is derived from it.
# Conditions: typically perceived sweetness, relative to sugar
row,Compound,Sweetness by weight compared to sugar
1,CCOc1ccc(NC(N)=O)cc1 [Dulcin],250×
2,Glucin,300×
3,Monellin,3000×
4,Pentadin,500×
5,Thaumatin,2000×
6,C[C@@H](NC(=O)[C@@H](N)CC(=O)O)C(=O)NC1C(C)(C)SC1(C)C [Alitame],2.000×
7,Mabinlin [Mabinlin Protein],100×
8,CC1=CC(=O)NS(=O)(=O)O1.COC(=O)[C@H](Cc1ccccc1)NC(=O)[C@@H](N)CC(=O)O [Salt of aspartame-acesulfame] (H-Asp-Phe-OMe),350×
9,OC[C@@H](O)[C@H](O)[C@@H](O)CO [Xylitol],1.0×
10,O=C(CO)[C@@H](O)[C@@H](O)[C@H](O)CO [Tagatose],0.92×
11,O=C1NS(=O)(=O)c2ccccc21 [Saccharin],300×
12,CC1(C)[C@@H](O[C@H]2O[C@H](C(=O)O)[C@@H](O)[C@H](O)[C@H]2O[C@@H]2O[C@H](C(=O)O)[C@@H](O)[C@H](O)[C@H]2O)CC[C@]2(C)[C@H]3C(=O)C=C4[C@@H]5C[C@@](C)(C(=O)O)CC[C@]5(C)CC[C@@]4(C)[C@]3(C)CC[C@@H]12 [Glycyrrhizin],50×
13,OC[C@@H](O)[C@@H](O)[C@H](O)[C@H](O)CO [Mannitol],0.5×
14,OCC(O)CO [Glycerol],0.6×
15,COC(=O)[C@H](Cc1ccccc1)NC(=O)[C@@H](N)CC(=O)O [Aspartame] (H-Asp-Phe-OMe),160-200×
16,OC[C@@H](O)[C@@H](O)CO [Erythritol],0.7×
17,Curculin,550×
18,CC1=CC(=O)NS(=O)(=O)O1 [Acesulfame potassium],200×
19,OC[C@@H](O)[C@@H](O)[C@H](O)[C@@H](O)CO [Sorbitol],0.6×
20,OC[C@@H](O)[C@@H](O[C@H]1O[C@H](CO)[C@@H](O)[C@H](O)[C@H]1O)[C@H](O)[C@@H](O)CO [Maltitol],0.9×
21,CCCOc1ccc([N+](=O)[O-])cc1N [P-4000],4000×
22,OC[C@H]1O[C@H](O[C@]2(CCl)O[C@H](CCl)[C@@H](O)[C@@H]2O)[C@H](O)[C@@H](O)[C@H]1Cl [Sucralose],600×
23,COc1ccc(CCC(=O)c2c(O)cc(O[C@@H]3O[C@H](CO)[C@@H](O)[C@H](O)[C@H]3O[C@@H]3O[C@@H](C)[C@H](O)[C@@H](O)[C@H]3O)cc2O)cc1O [Neohesperidin dihydrochalcone],1500×
24,OC[C@@H](O)[C@@H](O[C@@H]1O[C@H](CO)[C@H](O)[C@H](O)[C@H]1O)[C@H](O)[C@@H](O)CO [Lactitol],0.4×
25,"Brazzein (QDKCKKVYENYPVSKCQLANQCNYDCKLDKHARSGECFYDEKRNLQCICDYCEY; UniProt P56552 1-54, looked up) [natural sugar substitute]",800×
26,COC(=O)[C@H](Cc1ccccc1)NC(=O)[C@H](CC(=O)O)NCCC(C)(C)C [Neotame],8000×
